Measurements: US8093281B2, “Indazoles as glucocorticoid receptor ligands” (Glaxo Group Limited, priority 2005, dated 2012)

Experiments:
[1] = molecular target: T1, Progesterone Receptor (Homo sapiens, UniProt P06401); test: Assay for progesterone receptor activity (CV-1 cells transduced with PRb-BacMam and MMTV-BacMam); format: cell-based; conditions: 24 h, read-out: pEC50, progesterone receptor activity (converted)
T1 construct: expressed in transfected cells; host or cells: CV-1 cells transduced with PRb-BacMam and MMTV-BacMam (luciferase reporter)
T1 sequence (P06401 1-933): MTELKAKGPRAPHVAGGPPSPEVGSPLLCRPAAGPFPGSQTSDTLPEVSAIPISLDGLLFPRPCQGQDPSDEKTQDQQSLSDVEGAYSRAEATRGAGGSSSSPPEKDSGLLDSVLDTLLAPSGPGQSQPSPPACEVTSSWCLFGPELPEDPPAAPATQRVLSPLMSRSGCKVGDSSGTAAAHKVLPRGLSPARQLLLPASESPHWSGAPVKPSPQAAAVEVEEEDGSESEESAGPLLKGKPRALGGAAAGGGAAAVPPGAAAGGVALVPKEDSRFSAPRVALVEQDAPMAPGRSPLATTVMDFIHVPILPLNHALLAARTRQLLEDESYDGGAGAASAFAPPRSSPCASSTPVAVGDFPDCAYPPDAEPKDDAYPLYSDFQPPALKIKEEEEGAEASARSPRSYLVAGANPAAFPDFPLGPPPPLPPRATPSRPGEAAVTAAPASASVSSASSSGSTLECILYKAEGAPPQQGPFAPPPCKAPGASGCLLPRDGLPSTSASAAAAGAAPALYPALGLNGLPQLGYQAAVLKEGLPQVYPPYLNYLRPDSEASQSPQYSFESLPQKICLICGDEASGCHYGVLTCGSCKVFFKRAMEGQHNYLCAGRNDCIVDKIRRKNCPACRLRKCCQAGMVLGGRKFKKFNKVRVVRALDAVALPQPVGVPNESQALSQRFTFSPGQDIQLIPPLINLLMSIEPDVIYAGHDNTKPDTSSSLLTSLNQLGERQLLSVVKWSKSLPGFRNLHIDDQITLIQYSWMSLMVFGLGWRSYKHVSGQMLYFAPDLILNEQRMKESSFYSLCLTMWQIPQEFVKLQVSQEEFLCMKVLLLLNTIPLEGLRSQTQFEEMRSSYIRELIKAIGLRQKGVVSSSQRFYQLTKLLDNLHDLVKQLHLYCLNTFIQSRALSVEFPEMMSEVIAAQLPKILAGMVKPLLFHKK
Protocol: A T225 flask of CV-1 cells at a density of 80% confluency was washed with PBS, detached from the flask using 0.25% trypsin and counted using a Sysmex KX-21N. Cells were diluted in DMEM containing 10% Hyclone, 2 mM […] and 1% Pen/Strep at 140 cells/μl and transduced with 10% PRb-BacMam and 10% MMTV-BacMam. […] of suspension cells were dispensed to each well of white Nunc 384-well plates, containing compounds at the required concentration. After 24 h 10 μl of Steady Glo were added to each well of the plates. Plates were incubated in the dark for 10 min before reading them on a Viewlux reader. Dose response curves were constructed from which pEC50 values were estimated.

[2] = system: NFkB activity; test: Glucocorticoid mediated transrepression of NFkB activity (A549 cells, ELAM promoter alkaline phosphatase reporter, TNFα stimulated); format: cell-based; conditions: Homo sapiens, A549, 16 h, Human A549 lung epithelial cells, 3 ng/ml human recombinant TNFα, read-out: pEC50, transrepression of NFkB activity (converted)
Text: Human A549 lung epithelial cells were engineered to contain a secreted placental alkaline phosphatase gene under the control of the distal region of the NFkB dependent ELAM promoter as previously described in Ray, K. P., Farrow, S., Daly, M., Talabot, F. and Searle, N. “Induction of the E-selectin promoter by interleukin 1 and tumour necrosis factor alpha, and inhibition by glucocorticoids” Biochemical Journal (1997) 328: 707-15.
Compounds were solvated and diluted in DMSO, and transferred directly into assay plates such that the final concentration of DMSO was 0.7%. Following the addition of cells (40K per well), plates were incubated for 1 hr prior to the addition of 3 ng/ml human recombinant TNFα. Following continued incubation for 16 hr, alkaline phosphatase activity was determined by measuring the change in optical density at 405 nm with time following the addition of 0.7 volumes of assay buffer (1 mg/ml p-nitrophenylphosphate dissolved in 1M diethanolamine, 0.28M NaCl, 0.5 mM MgCl2). Dose response curves were constructed from which EC50 values were estimated.

EC50 [1]	EC50 [2]	Compound
> 10 µM		COc1ccc(F)cc1C(C)(C)CC(O)(CNc1cccc2c1cnn2-c1ccc(F)cc1)C(F)(F)F (single isomer, unassigned) [Example 2-A, 1,1,1-Trifluoro-4-[5-fluoro-2-(methyloxy)phenyl]-2-({[1-(4-fluorophenyl)-1H-indazol-4-yl]amino}methyl)-4-methyl-2-pentanol]
> 10 µM		Cc1cc(NCC(O)(CC(C)(C)c2cc(F)ccc2O)C(F)(F)F)c2cnn(-c3cccc(O)c3)c2c1 (single isomer, unassigned) [Example 24-A, 4-Fluoro-2-[4,4,4-trifluoro-3-hydroxy-3-({[1-(3-hydroxyphenyl)-6-methyl-1H-indazol-4-yl]amino}methyl)-1,1-dimethylbutyl]phenol]
> 10 µM		CCOC(=O)c1cccc(-n2ncc3c(NCC(O)(CC(C)(C)c4cc(F)ccc4OC)C(F)(F)F)cccc32)c1 (single isomer, unassigned) [Example 6-A, Ethyl 3-(4-{[4-[5-fluoro-2-(methyloxy)phenyl]-2-hydroxy-4-methyl-2-(trifluoromethyl)pentyl]amino}-1H-indazol-1-yl)benzoate]
> 10 µM		COc1ccc(F)cc1C(C)(C)CC(O)(CNc1cccc2c1cnn2-c1ccc(F)cc1F)C(F)(F)F (single isomer, unassigned) [Example 4-A, 2-({[1-(2,4-Difluorophenyl)-1H-indazol-4-yl]amino}methyl)-1,1′-trifluoro-4-[5-fluoro-2-(methyloxy)phenyl]-4-methyl-2-pentanol]
> 10 µM	< 3.16 nM	COc1ccc(F)cc1C(C)(C)CC(O)(CNc1cccc2c1cnn2-c1ccncc1)C(F)(F)F (racemic) [Example 5, 1,1,1-Trifluoro-4-[5-fluoro-2-(methyloxy)phenyl]-4-methyl-2-({[1-(4-pyridinyl)-1H-indazol-4-yl]amino}methyl)-2-pentanol]
> 10 µM		COc1ccc(F)cc1C(C)(C)CC(O)(CNc1cc(C)cc2c1cnn2-c1ccc(F)cc1)C(F)(F)F (single isomer, unassigned) [Example 26-A, 1,1,1-Trifluoro-4-[5-fluoro-2-(methyloxy)phenyl]-2-({[1-(4-fluorophenyl)-6-methyl-1H-indazol-4-yl]amino}methyl)-4-methyl-2-pentanol]
> 10 µM		COc1ccc(F)cc1C(C)(C)CC(O)(CNc1cc(C)cc2c1cnn2-c1ccccc1F)C(F)(F)F (single isomer, unassigned) [Example 25-B, 1,1,1-Trifluoro-4-[5-fluoro-2-(methyloxy)phenyl]-2-({[1-(2-fluorophenyl)-6-methyl-1H-indazol-4-yl]amino}methyl)-4-methyl-2-pentanol]
> 10 µM	< 3.16 nM	COc1ccc(F)cc1C(C)(C)CC(O)(CNc1cccc2c1cnn2-c1ccccc1)C(F)(F)F (racemic) [Example 7, 1,1,1-Trifluoro-4-[5-fluoro-2-(methyloxy)phenyl]-4-methyl-2-{[(1-phenyl-1H-indazol-4-yl)amino]methyl}-2-pentanol]
> 10 µM		COc1ccc(F)cc1C(C)(C)CC(O)(CNc1cc(C)cc2c1cnn2-c1ccc(F)cc1F)C(F)(F)F (single isomer, unassigned) [Example 16-B, 2-({[1-(2,4-Difluorophenyl)-6-methyl-1H-indazol-4-yl]amino}methyl)-1,1,1-trifluoro-4-[5-fluoro-2-(methyloxy)phenyl]-4-methyl-2-pentanol]
> 10 µM		COc1ccc(F)cc1C(C)(C)CC(O)(CNc1cc(C)cc2c1cnn2-c1ccccc1)C(F)(F)F (single isomer, unassigned) [Example 15-A, 1,1,1-Trifluoro-4-[5-fluoro-2-(methyloxy)phenyl]-4-methyl-2-{[(6-methyl-1-phenyl-1H-indazol-4-yl)amino]methyl}-2-pentanol]
> 10 µM	< 3.16 nM	COc1ccc(-n2ncc3c(NCC(O)(CC(C)(C)c4cc(F)ccc4OC)C(F)(F)F)cccc32)cc1 (racemic) [Example 3, 1,1,1-Trifluoro-4-[5-fluoro-2-(methyloxy)phenyl-4-methyl-2-({1-[4-(methyloxy)phenyl]-1H-indazol-4-yl}amino)methyl]-2-pentanol]
